Laboratory results as given in the CombiSolv-Exp solvation set (Vermeire and Green 2021).
Each block holds one molecule with its values, some of them ahead of it.

Experiment: solvent given as SMILES
[1] = in CCCCCCCCC=CCCCCCCCC(=O)OCC(COC(=O)CCCCCCCC=CCCCCCCCC)OC(=O)CCCCCCCC=CCCCCCCCC

Compound: Nc1ccccc1Cl
solvation free energy, 298 K (in O): -4.91 kcal/mol

Compound: CCCCCCCCCCCCCCCCCCCCCC
solvation free energy, 298 K (in CC(=O)N(C)C): -15 kcal/mol
solvation free energy, 298 K (in CC(C)(C)O): -13.3 kcal/mol
solvation free energy, 298 K (in CCC(C)=O): -13.6 kcal/mol
solvation free energy, 298 K [1]: -13.4 kcal/mol
solvation free energy, 298 K (in CCCCOC(C)=O): -14.1 kcal/mol
solvation free energy, 298 K (in CCOC(C)=O): -13.7 kcal/mol
solvation free energy, 298 K (in CN(C)C=O): -15 kcal/mol
solvation free energy, 298 K (in COC(C)(C)C): -14.9 kcal/mol
solvation free energy, 298 K (in COC(C)=O): -13 kcal/mol
solvation free energy, 298 K (in O): 4.87 kcal/mol

solvation free energy, 298 K (in C1CCOC1): -4.45 kcal/mol
solvation free energy, 298 K (in CCCCCC): -3.65 kcal/mol
solvation free energy, 298 K (in CCCCCCC): -3.63 kcal/mol
solvation free energy, 298 K (in CCCCCCCC): -3.57 kcal/mol
solvation free energy, 298 K (in CCCCCCCCCC): -3.49 kcal/mol
solvation free energy, 298 K (in CCCO): -3.89 kcal/mol
solvation free energy, 298 K (in CCO): -4.15 kcal/mol
solvation free energy, 298 K (in CO): -4.32 kcal/mol
solvation free energy, 298 K (in O): -2.93 kcal/mol
Compound: CCC(=O)OC

solvation free energy, 298 K (in O): 0.79 kcal/mol
Compound: CC1=CCC2C(C1)C2(C)C (stereo not given)

solvation free energy, 298 K (in CN(C)C=O): -9.25 kcal/mol
solvation free energy, 298 K (in O): -4.26 kcal/mol
Compound: COC(=O)c1ccc(Br)cc1

Compound: Clc1cccc(Cl)c1Cl
solvation free energy, 298 K (in CCCCCC): -6.92 kcal/mol
solvation free energy, 298 K [1]: -7.12 kcal/mol
solvation free energy, 298 K (in CCCCCCCCO): -7.08 kcal/mol
solvation free energy, 298 K (in O): -1.24 kcal/mol

Compound: CC(C)N(N=O)C(C)C
solvation free energy, 298 K (in CC(C)CC(C)(C)C): -6.07 kcal/mol
solvation free energy, 298 K (in O): -5.16 kcal/mol

Compound: CCNc1nc(Cl)nc(NC(C)C)n1
solvation free energy, 298 K (in O): -9.69 kcal/mol

solvation free energy, 298 K (in O): -9 kcal/mol
Compound: CCNc1nc(NC(C)(C)C)nc(OC)n1

solvation free energy, 298 K (in CC(C)CC(C)(C)C): -6.27 kcal/mol
solvation free energy, 298 K (in CCCCCC): -6.67 kcal/mol
solvation free energy, 298 K (in O): -6.12 kcal/mol
Compound: Cc1cccc(O)c1C

Compound: CCCCN(C)N=O
solvation free energy, 298 K (in CC(C)CC(C)(C)C): -5.73 kcal/mol
solvation free energy, 298 K (in O): -5.37 kcal/mol

solvation free energy, 298 K (in O): -5.21 kcal/mol
Compound: CCCc1ccc(O)cc1

Compound: C=CC(C)C
solvation free energy, 298 K (in CC(=O)N(C)C): -2.13 kcal/mol
solvation free energy, 298 K (in CC(C)CC(C)(C)C): -2.87 kcal/mol
solvation free energy, 298 K (in CCC(C)=O): -2.71 kcal/mol
solvation free energy, 298 K (in CCCCCCC): -2.96 kcal/mol
solvation free energy, 298 K (in CCCCCCCC): -2.92 kcal/mol
solvation free energy, 298 K (in CCCCO): -2.5 kcal/mol
solvation free energy, 298 K (in CCNC(C)=O): -2.26 kcal/mol
solvation free energy, 298 K (in CCOC(C)=O): -2.74 kcal/mol
solvation free energy, 298 K (in CN1CCCC1=O): -2.03 kcal/mol
solvation free energy, 298 K (in CN(C)C=O): -2.09 kcal/mol
solvation free energy, 298 K (in CNC(C)=O): -2.14 kcal/mol
solvation free energy, 298 K (in CNC=O): -1.75 kcal/mol
solvation free energy, 298 K (in Cc1ccc(C)cc1): -3.31 kcal/mol
solvation free energy, 298 K (in ClCCCl): -2.71 kcal/mol
solvation free energy, 298 K (in O): 1.84 kcal/mol
solvation free energy, 298 K (in O=C1CCCCC1): -2.61 kcal/mol

solvation free energy, 298 K (in C=CCCCCCCCCCCCCCC): -3.78 kcal/mol
solvation free energy, 298 K (in O): 0.2 kcal/mol
Compound: C=CC=CC=C

Compound: O=S(=O)(c1ccccc1)c1ccccc1
solvation free energy, 298 K (in C1CCOC1): -14.9 kcal/mol
solvation free energy, 298 K (in C1COCCO1): -15 kcal/mol
solvation free energy, 298 K (in CC(C)(C)O): -13.2 kcal/mol
solvation free energy, 298 K (in CC(C)CC(C)(C)C): -11.6 kcal/mol
solvation free energy, 298 K (in CC(C)CCO): -13.1 kcal/mol
solvation free energy, 298 K (in CC(C)CO): -13.2 kcal/mol
solvation free energy, 298 K (in CC(C)O): -13.2 kcal/mol
solvation free energy, 298 K (in CC(C)OC(C)C): -13.1 kcal/mol
solvation free energy, 298 K (in CCC(C)CO): -13.2 kcal/mol
solvation free energy, 298 K (in CCC(C)O): -13.4 kcal/mol
solvation free energy, 298 K (in CCCC(C)O): -13.1 kcal/mol
solvation free energy, 298 K (in CCCCCC): -11.8 kcal/mol
solvation free energy, 298 K (in CCCCCCC): -11.8 kcal/mol
solvation free energy, 298 K (in CCCCCCCC): -11.8 kcal/mol
solvation free energy, 298 K (in CCCCCCCCCC): -11.8 kcal/mol
solvation free energy, 298 K (in CCCCCCCCCCO): -12.8 kcal/mol
solvation free energy, 298 K (in CCCCCCCO): -13.1 kcal/mol
solvation free energy, 298 K (in CCCCCCO): -13.2 kcal/mol
solvation free energy, 298 K (in CCCCCO): -13.3 kcal/mol
solvation free energy, 298 K (in CCCCCl): -14.1 kcal/mol
solvation free energy, 298 K (in CCCCO): -13.4 kcal/mol
solvation free energy, 298 K (in CCCCOC(C)=O): -14.2 kcal/mol
solvation free energy, 298 K (in CCCCOCCCC): -12.8 kcal/mol
solvation free energy, 298 K (in CCCO): -13.5 kcal/mol
solvation free energy, 298 K (in CCO): -13.6 kcal/mol
solvation free energy, 298 K (in CCOC(C)=O): -14.6 kcal/mol
solvation free energy, 298 K (in CCOCC): -13.7 kcal/mol
solvation free energy, 298 K (in CO): -13.8 kcal/mol
solvation free energy, 298 K (in COC(C)(C)C): -13.5 kcal/mol
solvation free energy, 298 K (in COC(C)=O): -14.7 kcal/mol
solvation free energy, 298 K (in O): -10.1 kcal/mol

solvation free energy, 298 K (in O): -0.8 kcal/mol
Compound: COC(OC)(OC)C(F)(F)F

solvation free energy, 298 K (in C=CCCCCCCCCCCCCCC): -4.07 kcal/mol
solvation free energy, 298 K (in CC#N): -3.02 kcal/mol
solvation free energy, 298 K (in O): 2.61 kcal/mol
Compound: CCC(CC)CC

solvation free energy, 298 K (in O): -3.36 kcal/mol
Compound: C=C(C)C(CC=C(C)C)COC(C)=O (stereo not given)

Compound: Oc1ccc(Cl)cc1Cl
solvation free energy, 298 K (in CCCCCC): -6.8 kcal/mol
solvation free energy, 298 K (in CCCCCCC): -6.85 kcal/mol
solvation free energy, 298 K (in CCCCCCCC): -6.82 kcal/mol
solvation free energy, 298 K [1]: -7.49 kcal/mol
solvation free energy, 298 K (in CCCCCCCCCC): -6.79 kcal/mol
solvation free energy, 298 K (in Cc1ccc(C)cc1): -7.58 kcal/mol
solvation free energy, 298 K (in Cc1cccc(C)c1): -7.56 kcal/mol
solvation free energy, 298 K (in Cc1ccccc1C): -7.64 kcal/mol
solvation free energy, 298 K (in O): -4.98 kcal/mol

Compound: CNc1ccccc1
solvation free energy, 298 K (in CCCCCCCCCCCCCCCC): -6.06 kcal/mol
solvation free energy, 298 K (in O): -4.69 kcal/mol

Compound: Oc1ccccc1O
solvation free energy, 298 K (in CCCCCC): -5.88 kcal/mol
solvation free energy, 298 K (in CCCCCCCC): -6.04 kcal/mol
solvation free energy, 298 K (in Cc1ccc(C)cc1): -7.95 kcal/mol
solvation free energy, 298 K (in Cc1cccc(C)c1): -7.97 kcal/mol
solvation free energy, 298 K (in Cc1ccccc1C): -8.02 kcal/mol
solvation free energy, 298 K (in O): -9.82 kcal/mol

solvation free energy, 298 K (in CC(C)CCCC(C)CCCC(C)CCCCC(C)CCCC(C)CCCC(C)C): -3.52 kcal/mol
solvation free energy, 298 K (in CCCCCCCCCC): -3.79 kcal/mol
solvation free energy, 298 K (in CCCCCCCCCCCCCCCC): -3.55 kcal/mol
solvation free energy, 298 K (in CCCCCCCCO): -3.99 kcal/mol
solvation free energy, 298 K (in O): -2.59 kcal/mol
solvation free energy, 298 K (in [2H]O[2H]): -2.62 kcal/mol
Compound: CC(=O)OC(C)C

Compound: C=C(C)c1ccccc1
solvation free energy, 298 K (in CC(C)=O): -6.37 kcal/mol
solvation free energy, 298 K (in O): -1.28 kcal/mol

Compound: Clc1c(Cl)c(Cl)c2c(c1Cl)Oc1ccccc1O2
solvation free energy, 298 K (in O): -3.81 kcal/mol

solvation free energy, 298 K (in CCCCCCCCCCCCCCCC): -6.4 kcal/mol
solvation free energy, 298 K (in CCCCCCCCO): -6.46 kcal/mol
Compound: CCCCCOCCCCC

solvation free energy, 298 K (in O): -4 kcal/mol
Compound: C=C(C)C1CC=C(C)C(OC(C)=O)C1 (stereo not given)

Compound: CCN(C)N=O
solvation free energy, 298 K (in CC(C)CC(C)(C)C): -4.43 kcal/mol
solvation free energy, 298 K (in O): -5.73 kcal/mol

solvation free energy, 298 K (in O): -11.6 kcal/mol
Compound: CN(C)CCC(c1ccc(Br)cc1)c1ccccn1 (stereo not given)

solvation free energy, 298 K (in O): -9.4 kcal/mol
Compound: CCC(N)=O

solvation free energy, 298 K (in O): -0.25 kcal/mol
Compound: FC(F)(F)c1ccccc1

Compound: CCOCC
solvation free energy, 298 K (in C1CCOC1): -3.51 kcal/mol
solvation free energy, 298 K (in C=CCCCCCCCCCCCCCC): -2.74 kcal/mol
solvation free energy, 298 K (in CC(=O)N(C)C): -2.81 kcal/mol
solvation free energy, 298 K (in CC(C)=O): -3.25 kcal/mol
solvation free energy, 298 K (in CCCCCCCC): -3.05 kcal/mol
solvation free energy, 298 K (in CCCCCCCCCCCCCCCC): -2.79 kcal/mol
solvation free energy, 298 K (in CCCCCCCCCCO): -2.93 kcal/mol
solvation free energy, 298 K (in CCCCCCCCO): -2.99 kcal/mol
solvation free energy, 298 K (in CCCCCO): -3.12 kcal/mol
solvation free energy, 298 K (in CCCCCl): -3.4 kcal/mol
solvation free energy, 298 K (in CCCCN(C=O)CCCC): -2.88 kcal/mol
solvation free energy, 298 K (in CCCCO): -3.1 kcal/mol
solvation free energy, 298 K (in CCCCOCCCC): -3.23 kcal/mol
solvation free energy, 298 K (in CCN1CCCC1=O): -2.77 kcal/mol
solvation free energy, 298 K (in CCN(CC)C(C)=O): -2.95 kcal/mol
solvation free energy, 298 K (in CCNC(C)=O): -2.82 kcal/mol
solvation free energy, 298 K (in CCNC=O): -2.78 kcal/mol
solvation free energy, 298 K (in CCO): -3.26 kcal/mol
solvation free energy, 298 K (in CCOC(C)(C)C): -3.23 kcal/mol
solvation free energy, 298 K (in CN1CCCC1=O): -2.77 kcal/mol
solvation free energy, 298 K (in CN1CCCCC1=O): -2.77 kcal/mol
solvation free energy, 298 K (in CN(C)C=O): -2.81 kcal/mol
solvation free energy, 298 K (in CNC(C)=O): -2.77 kcal/mol
solvation free energy, 298 K (in CNC=O): -2.66 kcal/mol
solvation free energy, 298 K (in CO): -3.26 kcal/mol
solvation free energy, 298 K (in CS(C)=O): -2.2 kcal/mol
solvation free energy, 298 K (in Cc1cccc(C)c1): -3.29 kcal/mol
solvation free energy, 298 K (in ClC(Cl)(Cl)Cl): -3.52 kcal/mol
solvation free energy, 298 K (in ClCCCl): -3.44 kcal/mol
solvation free energy, 298 K (in ClCCl): -3.92 kcal/mol
solvation free energy, 298 K (in NC=O): -1.93 kcal/mol
solvation free energy, 298 K (in O): -1.74 kcal/mol
solvation free energy, 298 K (in [2H]O[2H]): -1.96 kcal/mol

solvation free energy, 298 K (in CN1CCCC1=O): -4.91 kcal/mol
solvation free energy, 298 K (in CN(C)C=O): -4.77 kcal/mol
Compound: C1=CCCCCCC1

solvation free energy, 298 K (in O): -4.27 kcal/mol
Compound: Cc1ccc(C=O)cc1

solvation free energy, 298 K (in O): -4.04 kcal/mol
Compound: COC(OC)(OC)c1ccccc1

solvation free energy, 298 K (in O): -1.21 kcal/mol
Compound: CC(C)SC(C)C

Compound: CCOP(=S)(OCC)Oc1cc(C)nc(C(C)C)n1
solvation free energy, 298 K (in O): -6.48 kcal/mol

Compound: CN1C(=O)CN=C(c2ccccc2)c2cc(Cl)ccc21
solvation free energy, 298 K (in O): -12.6 kcal/mol

solvation free energy, 298 K (in O): -9.2 kcal/mol
Compound: CCOC(=O)c1ccc(O)cc1

solvation free energy, 298 K (in C1CCCCC1): -5.73 kcal/mol
solvation free energy, 298 K (in CC(C)CC(C)(C)C): -5.93 kcal/mol
solvation free energy, 298 K (in O): -7.83 kcal/mol
solvation free energy, 298 K (in c1ccccc1): -6.83 kcal/mol
Compound: CN1CCCC1=O
